Data: article PMC6592956, “Characterization of Porcine Hepatic and Intestinal Drug Metabolizing CYP450: Comparison with Human Orthologues from A Quantitative, Activity and Selectivity Perspective” (Scientific Reports, 2019)
Marks after values point to notes of the source that are not given here.

What was measured:
[1] = test system: porcine intestinal CYP450 enzymes; conditions: duodenum, jejunum, ileum
Description: (§1) Intestinal microsomes were incubated as described above for hepatic microsomes. […] Each activity measurement (hepatic and intestinal) was performed in triplicate and data are present [...

porcine CYP450 = conditions: outcome of general decision tree, Figure 4
[2] = test system: hepatic CYP450 abundancies; assay: Pearson correlation between hepatic CYP450 abundancies and probe activities
[3] = test system: porcine intestinal CYP450 enzymes; assay: in vitro; conditions: pig
Description: as §1

CYP1A [4] = conditions: n = 8
Description: (§2) The incubation times were derived from linearity experiments. […] Protein concentrations and time were chosen at the lowest possible value to allow reliable quantification, within the linear range of the biotransformation reaction.
(§3) The activity data were fitted against the standard Michaelis-Menten equation (Eq. (1a), first term). For each profile, Eadie-Hofstee plots were derived to investigate involvement of more than one enzyme or deviation from normal Michaelis-Menten behaviour. If the Eadie-Hofstee plot was hyperbolic, the data was fitted against the Hill equation[60]. Km, Vmax and/or Hill coefficients were derived for each substrate and pig, in order to obtain the inter-individual variation.
(§4) Stepwise linear regression, correlation analyses, and independent sample t-tests were performed with the SPSS® 24 software (IBM, New York, USA). Sex differences in hepatic protein abundances, Km, and Vmax values, were analyzed by an independent sample t-test. Normality was checked using the Shapiro Wilk test. If the Shapiro Wilk test statistic was significant, log transformation was used to calculate the t-statistic. Equality of variances was checked using the Levene’s test for equality of variances. The appropriate test statistic was used depending on the equality of variances.

CYP1A [5] = conditions: n = 8; remark: listed apart in the source
Description: as §2, §3, §4

Compound: O=c1ccc2ccccc2o1 [CM, coumarin]
- CM-hydroxylase activity in the intestine [1]: No CM-hydroxylase activity could be detected
- Enzyme involvement: High affinity (porcine CYP450): CYP2A19
- Pearson's correlation coefficient, CM activity vs hepatic CYP2A19 abundance ([2]; level 3 (CM 2.00 µM)): 0.62
- Pearson's correlation coefficient, CM activity vs hepatic CYP2A19 abundance ([2]; level 4 (CM 5.00 µM)): 0.66*
- Pearson's correlation coefficient, CM activity vs hepatic CYP2A19 abundance ([2]; level 5 (CM 20.0 µM)): 0.67*
- Pearson's correlation coefficient, CM activity vs hepatic CYP2A19 abundance ([2]; level 6 (CM 100 µM)): 0.66*

Compound: COc1ccc2c(c1)[C@]13CCCC[C@@H]1[C@H](C2)N(C)CC3 [DXM, Dextromethorphan]
- Km at 10 min ([3]; Duodenum Km, duodenal microsomes, pool of 16 pigs, n=3, mean (SD)): 31.5 µM
- Enzyme involvement: High affinity (porcine CYP450): CYP2D25
- Enzyme involvement: Low affinity (porcine CYP450): CYP3A
- Pearson's correlation coefficient, DXM activity vs hepatic CYP2C33 abundance ([2]; level 1 (DXM 0.10 µM)): 0.59
- Pearson's correlation coefficient, DXM activity vs hepatic CYP2E1 abundance ([2]; level 1 (DXM 0.10 µM)): 0.55
- Pearson's correlation coefficient, DXM activity vs hepatic CYP3A46 abundance ([2]; level 1 (DXM 0.10 µM)): 0.59
- Pearson's correlation coefficient, DXM activity vs hepatic CYP2C33 abundance ([2]; level 2 (DXM 0.50 µM)): 0.65*
- Pearson's correlation coefficient, DXM activity vs hepatic CYP2D25 abundance ([2]; level 2 (DXM 0.50 µM)): 0.55
- Pearson's correlation coefficient, DXM activity vs hepatic CYP2E1 abundance ([2]; level 2 (DXM 0.50 µM)): 0.57
- Pearson's correlation coefficient, DXM activity vs hepatic CYP3A29 abundance ([2]; level 2 (DXM 0.50 µM)): 0.52
- Pearson's correlation coefficient, DXM activity vs hepatic CYP3A46 abundance ([2]; level 2 (DXM 0.50 µM)): 0.65*
- Pearson's correlation coefficient, DXM activity vs hepatic CYP1A2 abundance ([2]; level 3 (DXM 1.00 µM)): 0.54
- Pearson's correlation coefficient, DXM activity vs hepatic CYP2C33 abundance ([2]; level 3 (DXM 1.00 µM)): 0.65*
- Pearson's correlation coefficient, DXM activity vs hepatic CYP2D25 abundance ([2]; level 3 (DXM 1.00 µM)): 0.57
- Pearson's correlation coefficient, DXM activity vs hepatic CYP2E1 abundance ([2]; level 3 (DXM 1.00 µM)): 0.60
- Pearson's correlation coefficient, DXM activity vs hepatic CYP3A29 abundance ([2]; level 3 (DXM 1.00 µM)): 0.56
- Pearson's correlation coefficient, DXM activity vs hepatic CYP3A46 abundance ([2]; level 3 (DXM 1.00 µM)): 0.73*
- Pearson's correlation coefficient, DXM activity vs hepatic CYP1A2 abundance ([2]; level 4 (DXM 5.00 µM)): 0.56
- Pearson's correlation coefficient, DXM activity vs hepatic CYP2C33 abundance ([2]; level 4 (DXM 5.00 µM)): 0.70*
- Pearson's correlation coefficient, DXM activity vs hepatic CYP2D25 abundance ([2]; level 4 (DXM 5.00 µM)): 0.63*
- Pearson's correlation coefficient, DXM activity vs hepatic CYP2E1 abundance ([2]; level 4 (DXM 5.00 µM)): 0.56
- Pearson's correlation coefficient, DXM activity vs hepatic CYP3A29 abundance ([2]; level 4 (DXM 5.00 µM)): 0.58
- Pearson's correlation coefficient, DXM activity vs hepatic CYP3A46 abundance ([2]; level 4 (DXM 5.00 µM)): 0.78*
- Pearson's correlation coefficient, DXM activity vs hepatic CYP1A2 abundance ([2]; level 5 (DXM 20.0 µM)): 0.55
- Pearson's correlation coefficient, DXM activity vs hepatic CYP2C33 abundance ([2]; level 5 (DXM 20.0 µM)): 0.70*
- Pearson's correlation coefficient, DXM activity vs hepatic CYP2D25 abundance ([2]; level 5 (DXM 20.0 µM)): 0.63*
- Pearson's correlation coefficient, DXM activity vs hepatic CYP2E1 abundance ([2]; level 5 (DXM 20.0 µM)): 0.52
- Pearson's correlation coefficient, DXM activity vs hepatic CYP3A29 abundance ([2]; level 5 (DXM 20.0 µM)): 0.58
- Pearson's correlation coefficient, DXM activity vs hepatic CYP3A46 abundance ([2]; level 5 (DXM 20.0 µM)): 0.75*
- Pearson's correlation coefficient, DXM activity vs hepatic CYP1A2 abundance ([2]; level 6 (DXM 100 µM)): 0.54
- Pearson's correlation coefficient, DXM activity vs hepatic CYP2C33 abundance ([2]; level 6 (DXM 100 µM)): 0.67*
- Pearson's correlation coefficient, DXM activity vs hepatic CYP2D25 abundance ([2]; level 6 (DXM 100 µM)): 0.66*
- Pearson's correlation coefficient, DXM activity vs hepatic CYP2E1 abundance ([2]; level 6 (DXM 100 µM)): 0.54
- Pearson's correlation coefficient, DXM activity vs hepatic CYP3A29 abundance ([2]; level 6 (DXM 100 µM)): 0.59
- Pearson's correlation coefficient, DXM activity vs hepatic CYP3A46 abundance ([2]; level 6 (DXM 100 µM)): 0.74*
- Correlation (r) of CYP2D25 with DXM-O-demethylation ([2]; range over concentration levels): 0.55–0.66

Compound: CCOc1ccc(NC(C)=O)cc1 [PH, Phenacetin]
- Km at 10 min ([3]; duodenal microsomes): 144 µM
- Km at 10 min ([3]; ileal microsomes): 189 µM
- Km at 10 min ([3]; jejunal microsomes): 182 µM
- Pearson's correlation coefficient, PH activity vs hepatic CYP3A46 abundance ([2]; level 6 (PH 200 µM)): 0.51

Compound: CCOc1ccc(NC(C)=O)cc1 [PH, phenacetin]
- log_Km, male (CYP1A [4]): 1,2876
- log_Km, female (CYP1A [5]): 1,1345
